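Five compound concentrations were applied to cells in 96-well plates for 48 hours; endpoints were derived by simple linear interpolation of the resulting dose-response curve. The concentration for 50% growth inhibition is given as GI50. TGI denotes the concentration required for complete inhibition of growth.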
Assays:
Assay in all cases: inhibition of tumour cell growth, NCI panel, 48 h
[1] = tested on: OVCAR-8 ovarian
[2] = tested on: U251 CNS
[3] = tested on: UACC-257 melanoma
[4] = tested on: NCI-H460 lung
[5] = tested on: K-562 leukemia
[6] = tested on: SK-OV-3 ovarian
[7] = tested on: NCI-H522 lung
[8] = tested on: MDA-MB-231 breast
[9] = tested on: SF-268 CNS
[10] = tested on: HL-60(TB) leukemia

Structure (SMILES) | GI50 [1] | TGI [1] | GI50 [2] | TGI [2] | GI50 [3] | TGI [3] | GI50 [4] | TGI [4] | GI50 [5] | TGI [5] | GI50 [6] | TGI [6] | GI50 [7] | TGI [7] | GI50 [8] | TGI [8] | GI50 [9] | TGI [9] | TGI [10] | GI50 [10]
O=C(Cc1csc2nc(-c3ccc(Br)cc3)cn12)N/N=C/c1ccc(O)cc1 | 7.07 µM | 25.9 µM | 21.3 µM | > 100 µM | 1.52 µM | 7.72 µM | 56.9 µM | > 100 µM | 1.83 µM | 7.02 µM | 52.5 µM | > 100 µM | 10.7 µM | 34.5 µM | 10.4 µM | 43.2 µM | > 100 µM | > 100 µM | – | –
COc1ccccc1NC(=O)C(CC(C(=O)Nc1ccccc1OC)/C(C)=N/Nc1ccc([N+](=O)[O-])cc1[N+](=O)[O-])/C(C)=N/Nc1ccc([N+](=O)[O-])cc1[N+](=O)[O-] (stereo unspecified) | – | > 100 µM | – | > 100 µM | – | > 100 µM | – | > 100 µM | – | > 100 µM | – | > 100 µM | – | > 100 µM | – | – | – | > 100 µM | > 100 µM | –
C/C(CC(=O)N(C(C)C)C(C)C)=N\NC(=O)c1ccncc1 | – | > 100 µM | – | > 100 µM | – | > 100 µM | – | – | – | > 100 µM | – | > 100 µM | – | > 100 µM | – | – | – | > 100 µM | > 100 µM | –
CSC1=NCC2(S1)c1ccccc1N(C(=O)OC(C)(C)C)C2N1CCCCC1 (stereo unspecified) | > 100 µM | > 100 µM | – | – | > 100 µM | > 100 µM | 69.6 µM | > 100 µM | 73.8 µM | > 100 µM | – | – | 27.5 µM | > 100 µM | 41.8 µM | > 100 µM | 74.4 µM | > 100 µM | > 100 µM | 63.7 µM
CCOc1ccc(C(CN2CCOCC2)C(C)=O)cc1OC (stereo unspecified) | – | 37.7 µM | – | 31.9 µM | – | 45.8 µM | – | 32.5 µM | – | 13.9 µM | – | – | – | 2.46 µM | – | – | – | 41 µM | 17 µM | –
O=S(=O)(c1ccc(O)c(C=Nc2ccc(Cl)cc2)c1)c1ccc(O)c(C=Nc2ccc(Cl)cc2)c1 | – | > 100 µM | – | > 100 µM | – | > 100 µM | – | > 100 µM | – | > 100 µM | – | > 100 µM | – | > 100 µM | – | – | – | > 100 µM | > 100 µM | –
O=C1c2ccccc2C(=O)c2nc3ccc(Cl)cc3cc21 | – | > 100 µM | – | > 100 µM | – | – | – | > 100 µM | – | > 100 µM | – | > 100 µM | – | > 100 µM | – | – | – | > 100 µM | – | –
OCNCCNc1nc2ccccc2c2[nH]c3ccccc3c12 | 0.809 µM | 8.41 µM | 0.506 µM | 1.9 µM | 1.64 µM | 5.71 µM | 1.46 µM | 5.8 µM | 1.55 µM | 42.8 µM | – | – | 1.55 µM | > 50 µM | 1.24 µM | 3.77 µM | 1.36 µM | 6.44 µM | 3.93 µM | 1.31 µM
COC(=O)CC(C(C(C)=O)C(=O)OCc1ccccc1)N1C(=O)OCC1c1ccccc1 (stereo unspecified) | – | > 100 µM | – | > 100 µM | – | > 100 µM | – | > 100 µM | – | > 100 µM | – | – | – | – | – | – | – | > 100 µM | > 100 µM | –
CCOC(=O)C(NC(=O)c1[nH]cnc1/N=N/N(C)C)C(C)C (stereo unspecified) | – | > 100 µM | – | > 100 µM | – | > 100 µM | – | > 100 µM | – | > 100 µM | – | > 100 µM | – | > 100 µM | – | – | – | > 100 µM | > 100 µM | –
COc1ccc(S(=O)(=O)N(C)CC(=O)O)cc1 | – | > 100 µM | – | > 100 µM | – | > 100 µM | – | > 100 µM | – | > 100 µM | – | > 100 µM | – | > 100 µM | – | – | – | > 100 µM | > 100 µM | –
CCCCCCCCCCCCCCCCOC(=O)c1cc(O)cc(C(=O)OCCCCCCCCCCCCCCCC)c1 | – | > 100 µM | – | > 100 µM | – | > 100 µM | – | > 100 µM | – | > 100 µM | – | > 100 µM | – | > 100 µM | – | – | – | > 100 µM | > 100 µM | –
FC1OC2OC1C(OCc1ccccc1)C(OCc1ccccc1)C2OCc1ccccc1 (stereo unspecified) | – | > 100 µM | – | > 100 µM | – | > 100 µM | – | > 100 µM | – | 75.1 µM | – | > 100 µM | – | – | – | – | – | > 100 µM | 62.9 µM | –
CC(=O)OC1CC2C(=O)C(=O)C1(C)C2(C)C (stereo unspecified) | – | > 100 µM | – | > 100 µM | – | > 100 µM | – | > 100 µM | – | > 100 µM | – | > 100 µM | – | – | – | > 100 µM | – | > 100 µM | – | –
CCOP(=O)(Nc1ccc2oc(=O)c3ccccc3c2c1)OCC | – | > 100 µM | – | > 100 µM | – | > 100 µM | – | > 100 µM | – | > 100 µM | – | – | – | > 100 µM | – | > 100 µM | – | > 100 µM | 55.8 µM | –
C#CCN(Cc1ccc2nc(N)[nH]c(=O)c2c1)c1ccc(C(=O)NC(CCC(=O)O)C(=O)O)cc1 (stereo unspecified) | – | > 100 µM | – | > 100 µM | – | > 100 µM | – | > 100 µM | – | – | – | > 100 µM | – | – | – | > 100 µM | – | > 100 µM | > 100 µM | –
COc1ccc(CCN=C2CCC(C(=O)NCCc3ccc(OC)c(OC)c3)N2)cc1OC (stereo unspecified) | – | > 100 µM | – | > 100 µM | – | > 100 µM | – | > 100 µM | – | > 100 µM | – | > 100 µM | – | > 100 µM | – | – | – | > 100 µM | > 100 µM | –
CCN(CC)CCN(C(=O)C(C)(C)C)c1ccccc1N | – | > 100 µM | – | > 100 µM | – | > 100 µM | – | > 100 µM | – | > 100 µM | – | > 100 µM | – | > 100 µM | – | – | – | > 100 µM | > 100 µM | –
C[C@]12CC[C@H](OC3CCCCO3)CC1=CC[C@@H]1C2CC[C@]2(C)/C(=N/O)CCC12 (stereo partly specified) | – | 40.5 µM | – | 40.4 µM | – | 79.8 µM | – | 62.1 µM | – | > 100 µM | – | 82 µM | – | 31.1 µM | – | – | – | – | – | –
CNC(=O)CN(CC(N)=O)C(N)=O | – | > 100 µM | – | > 100 µM | – | – | – | > 100 µM | – | > 100 µM | – | > 100 µM | – | > 100 µM | – | – | – | > 100 µM | > 100 µM | –
COc1ccc2nc3ccccc3c(NCCCCN(C)CCCl)c2c1 | – | – | – | 0.251 µM | – | 4.93 µM | – | 0.234 µM | – | 0.93 µM | – | 0.469 µM | – | 0.0763 µM | – | – | – | 0.756 µM | 0.0435 µM | –
